Assay [1] deals with T1, bovine trypsin (Bos taurus, UniProt P00760).
T1 sequence (P00760 24-246): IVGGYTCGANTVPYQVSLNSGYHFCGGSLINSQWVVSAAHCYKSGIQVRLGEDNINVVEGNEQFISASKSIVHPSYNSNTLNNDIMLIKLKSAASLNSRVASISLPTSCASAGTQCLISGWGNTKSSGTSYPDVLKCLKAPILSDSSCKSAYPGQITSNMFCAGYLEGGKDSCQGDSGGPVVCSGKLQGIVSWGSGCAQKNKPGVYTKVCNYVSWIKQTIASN
The experiment in a line: Trypsin assay, IC50 (S-2222 substrate). It is filed as biochemical. As to conditions: for IC50: 30 min preincubation, room temperature, tested 0.025-25 μM. The method, then:
(§1) The specificity of the peptide aldehydes (8 through 12) was determined in vitro by measurement of their IC50 against other enzymes involved in hemostasis. A specific concentration of enzyme and its substrate were challenged with varying concentrations of inhibitor. […] Specific assay procedures used are presented below.
(§2) 96-well microtiter plates were prepared for use in these assays by incubating each well with 300 μL 1% bovine serum albumin (in deionized water) for 30 minutes at 37° C., then washing three times with deionized water.
(§3) The substrate was made up in deionized water prior to use.

Assay [2] has as its target T2, human Factor Xa (Homo sapiens, UniProt P00742).
T2 construct: 50 μL 30 nM human Factor Xa
The experiment in a line: Factor Xa assay (Pefachrome Xa substrate). It is filed as biochemical. Here is the method:
as §1, §2
Enzyme activity was determined using as substrate, Pefachrome Xa [N-methoxycarbonyl-D-cyclohexylalanyl-L-glycyl-L-arginine p-niroanilide acetate], purchased from Centerchem, Inc. The substrate was made up in deionized water prior to use.

The target in assay [3] is T3, human Factor XIa (Homo sapiens, UniProt P03951).
T3 construct: 50 μL of 5 nM human Factor XIa
The experiment in a line: Factor XIa assay (S-2366 substrate). It is filed as biochemical. As to conditions: for IC50: 30 min preincubation, room temperature, tested 0.025-25 μM, Inact. = no inhibition at highest concentration. Here is the method:
as §1, §2, §3

For assay [4], the target named is T4, bovine thrombin (Bos taurus, UniProt P00735).
T4 construct: 50 μL 20 nM bovine thrombin
The experiment in a line: Thrombin assay (S-2238 substrate). In kind it is biochemical. The following applies: for IC50 Thrombin / IC50: 30 min preincubation, room temperature, tested 0.025-25 μM, Inact. = no inhibition at highest concentration. The method, then: (§4) The specificity of the peptide aldehydes (8 through 12) was determined in vitro by measurement of their IC50 against other enzymes involved in hemostasis. A specific concentration of enzyme and its substrate were challenged with varying concentrations of inhibitor. IC50 is that concentration of inhibitor giving 50% inhibition of substrate turnover, under the assay conditions. Specific assay procedures used are presented below.
as §2
Enzyme activity was determined using as substrate, S-2238 [D-phenylalanyl-L-pipecolyl-L-arginine-p-nitroanilide dihydrochloride], purchased from Kabi Diagnostica. The substrate was made up in deionized water prior to use.
The assay was run by combining in appropriate wells 50 μL TBS and 50 μL inhibitor in TBS or TBS alone and 50 μL 20 nM bovine thrombin (or TBS as background control), incubating this mixture for 30 minutes at room temperature, adding 50 μL 1 mM S-2238, incubating for an additional 30 minutes at room temperature, then reading the absorbance of the wells at 405 nm on a microtiter plate reader set with background substraction at 650 nm.

Assay [5] has as its target recombinant tissue plasminogen activator (Homo sapiens, UniProt P00750). Briefly: Tissue plasminogen activator assay (S-2288 substrate). It is filed as biochemical. The method, then:
as §1, §2, §3

Assay [6] addresses T5, human urokinase (Homo sapiens, UniProt P00749).
T5 construct: 50 μL of 270 U/mL human urokinase
Briefly: Urokinase assay (S-2444 substrate). It is filed as biochemical. The method, then:
as §4, §2
Enzyme activity was determined using as substrate S-2444 [L-pyroglutamyl-L-glycyl-L-arginine-p-nitroanilide hydrochloride], purchased from Kabi Diagnostica. The substrate was made up in deionized water prior to use.
The assay was run by combining in appropriate wells 50 μL inhibitor in TBS or TBS alone and 50 μL of 270 U/mL human urokinase (or TBS as background control) and 50 μL TBS, incubating this mixture for 30 minutes at room temperature, adding 50 μL 1 mM S-2444, incubating for an additional 30 minutes at room temperature, then reading the absorbance of the wells at 405 nm on a microtiter plate reader set with background substraction at 650 nm.

Assay [7] concerns the target bovine and human pancreatic trypsin. Briefly: Potency: determination of inhibitor constant Ki against trypsin (S-2222 substrate, Dixon plot). In kind it is biochemical. The following applies: 37° C., TBS pH 7.4, 15 min preincubation, read-out: Ki For Peptide Aldehydes Against Trypsin. The method, then:
The potency and specificity of the compounds of the present invention are determined by in vitro assay methods well known in the art. […] Specifically, the inhibitor constant, Ki, of the compounds can be determined by the method of Dixon, Biochem. J. 55:170 (1953). The specificity is assessed by determination of the concentration, IC50, of compound required to give 50% inhibition of the enzymatic activity of the coagulation enzymes, kallikrein, factor XIa, factor VIIa, factor Xa, thrombin; the fibrinolysis enzymes, plasmin, tissue plasminogen activator (tPA), and urokinase (UK), and the anticoagulation enzyme, protein C. Specificity is found when the concentration of compound giving 50% inhibition of trypsin is low relative to the concentration required to give like inhibition of the other enzymes.
Enzyme activity was determined using as substrate S-2222 [N-benzoyl-L-isoleucyl-L-glutamyl-glycyl-L-arginine-p-nitroanilide hydrochloride where glutamyl side chain is 50% carboxylic acid and 50% methyl ester], purchased from Kabi Diagnostica. The substrate was made up in deionized water prior to use.
A 96-well microtiter plate was prepared for use in the assay by incubating each well with 300 μL of 1% bovine serum albumin (in deionized water) for 30 minutes at 37° C., and washing three times with deionized water.
To each well was added 50 μL TBS (0.1M Tris, 0.14M NaCl, pH 7.4), 50 μL 2.5 nM trypsin and 50 μL peptide aldehyde in TBS or TBS alone. After incubating for 15 minutes at 37° C., 50 μL of S-2222 (at 37° C.) at a specified concentration was added to each well. After mixing, the rate of substramte turnover at 37° C. was measured for 30 minutes at 405 nm (generation of p-nitroaniline). The initial S-2222 concentrations in the assay mixture were 0.45, 0.23, 0.11, 0.056, and 0.028 mM.
Ki was determined graphically using a Dixon plot, as described in Dixon, Biochem. J. 55:170 (1953).

For assay [8], the target named is plasmin (Homo sapiens, UniProt P00747). Briefly: Plasmin assay (S-2251 substrate). In kind it is biochemical. Further details: 50 μL 25 nM human plasmin. As to conditions: for IC50: 30 min preincubation, room temperature, tested 0.025-25 μM, Inact. = no inhibition at highest concentration. The method, then: as §1, §2, §3
Assay [9] deals with T6, Activated human Protein C (Homo sapiens, UniProt P04070).
T6 construct: from tissue
Briefly: Protein C assay (Pefachrome PC substrate). It is filed as biochemical. The following applies: for IC50: 30 min preincubation, room temperature, tested 0.025-25 μM, Inact. = no inhibition at highest concentration. The method, then: as §1, §2
Enzyme activity was determined using as substrate, Pefachrome PC [δ-carbobenzoloxy-D-lysyl-L-prolyl-L-arginine-p-nitroanilide], purchased from Centerchem, Inc. The substrate was made up in deionized water prior to use. Protac used to activate Protein C was obtained from American Diagnostics.

Assay [10] deals with T7, human kallekrein (Homo sapiens, UniProt P03952).
T7 construct: 50 μL of 4 to 9 nM human kallekrein
The experiment in a line: Kallikrein assay (S-2302 substrate). It is filed as biochemical. The following applies: for IC50: 30 min preincubation, room temperature, tested 0.025-25 μM, Inact. = no inhibition at highest concentration. The method, then: as §1, §2, §3

The target in assay [11] is T8, Factor VIIa:rTF complex (Homo sapiens, UniProt P08709).
T8 construct: 2.5 ml 400 nMhuman Factor VIIa
The experiment in a line: Factor VIIa assay (S-2288 substrate). It is filed as biochemical. The method, then:
as §4, §2
Enzyme activity was determined using as substrate, S-2288 [D-isoleucyl-L-prolyl-L-arginine-p-nitroanilide dihydrochloride], purchased from Kabi Diagnostica. The substrate was made up in deionized water prior to use.
Both solutions were then incubated for 30 minutes at room temperature before use in the assay.
The assay was run by combining in appropriate wells 50 μL inhibitor in TBS or TBS alone and 100 μL of Factor VIIa:rTF complex or background control, incubating this mixture for 30 minutes at room temperature, adding 50 μL of 2 mM S-2288, incubating for an additional 30 to 60 minutes at room temperature, then reading the absorbance of the wells at 405 nm on a microtiter plate reader set with background substraction at 650 nm.

Assay [12] has as its system acute pancreatitis induced in animal models. The following applies: literature reports; cited from earlier work.
In assay [13] the test system is trypsin. The following applies: literature (Saino et al.); cited from earlier work.
For assay [14], the target named is kallikrein. As to conditions: literature; cited from earlier work.
Assay [15] deals with human acute pancreatitis. As to conditions: literature reports; cited from earlier work.
The target in assay [16] is trypsin. The following applies: literature (Jones); read-out: dissociation constant (Kd) trypsin; cited from earlier work.
[17] abbreviates: 30 min preincubation, room temperature, tested 0.025-25 μM, Inact. = no inhibition at highest concentration.
Setting [18] is: [IC50 for Trypsin/IC50 for other enzyme]×100, lower = more trypsin selective.

Non-standard residues stand in square brackets, D forms with d. Residues, ends and D or L forms follow the SMILES beside them. *: point of attachment. Boc = CC(C)(C)OC(=O)*

T6 sequence (P04070 212-461 limits assumed): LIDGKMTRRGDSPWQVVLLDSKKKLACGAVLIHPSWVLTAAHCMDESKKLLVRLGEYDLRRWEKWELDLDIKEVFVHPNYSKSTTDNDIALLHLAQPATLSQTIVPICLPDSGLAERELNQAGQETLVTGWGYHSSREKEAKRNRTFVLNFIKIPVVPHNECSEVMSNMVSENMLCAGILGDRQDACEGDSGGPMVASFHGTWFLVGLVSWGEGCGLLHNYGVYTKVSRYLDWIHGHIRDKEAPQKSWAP
T6 sequence (P04070 43-197 partner limits assumed): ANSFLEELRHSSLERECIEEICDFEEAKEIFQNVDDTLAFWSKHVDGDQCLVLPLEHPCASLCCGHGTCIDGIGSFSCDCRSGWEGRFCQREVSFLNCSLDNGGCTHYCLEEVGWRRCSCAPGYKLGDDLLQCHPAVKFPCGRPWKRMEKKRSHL
T8 sequence (P08709 213-466 limits assumed): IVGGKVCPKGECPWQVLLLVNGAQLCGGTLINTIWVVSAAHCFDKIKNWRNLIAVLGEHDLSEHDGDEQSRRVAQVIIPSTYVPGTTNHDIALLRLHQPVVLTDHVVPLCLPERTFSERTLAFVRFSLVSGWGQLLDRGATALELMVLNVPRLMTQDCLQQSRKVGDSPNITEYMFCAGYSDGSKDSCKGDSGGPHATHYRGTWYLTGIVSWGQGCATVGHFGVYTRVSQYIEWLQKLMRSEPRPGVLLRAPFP
T8 sequence (P08709 61-212 partner limits assumed): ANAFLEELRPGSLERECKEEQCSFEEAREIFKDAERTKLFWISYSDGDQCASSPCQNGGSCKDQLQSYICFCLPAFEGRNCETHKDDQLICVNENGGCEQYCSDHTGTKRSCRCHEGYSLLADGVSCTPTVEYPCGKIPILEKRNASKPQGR
T8 sequence (P13726 33-295 partner): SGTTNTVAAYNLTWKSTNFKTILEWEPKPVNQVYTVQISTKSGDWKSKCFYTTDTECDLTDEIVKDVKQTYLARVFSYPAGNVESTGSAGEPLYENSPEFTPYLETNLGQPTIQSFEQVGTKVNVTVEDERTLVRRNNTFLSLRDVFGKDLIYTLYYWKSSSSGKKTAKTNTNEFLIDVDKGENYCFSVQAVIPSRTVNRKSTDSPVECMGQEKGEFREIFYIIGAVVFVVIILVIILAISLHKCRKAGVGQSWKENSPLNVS
Chain of plasmin (P00747 581-810 limits assumed): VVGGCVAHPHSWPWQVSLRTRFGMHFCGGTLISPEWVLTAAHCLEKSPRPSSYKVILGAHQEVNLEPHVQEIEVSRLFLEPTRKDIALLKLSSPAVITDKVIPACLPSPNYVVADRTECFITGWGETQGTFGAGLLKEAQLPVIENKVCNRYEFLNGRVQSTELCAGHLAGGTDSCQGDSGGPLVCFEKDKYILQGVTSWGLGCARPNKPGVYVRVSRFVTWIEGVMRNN
Chain of plasmin (P00747 97-580 partner limits assumed): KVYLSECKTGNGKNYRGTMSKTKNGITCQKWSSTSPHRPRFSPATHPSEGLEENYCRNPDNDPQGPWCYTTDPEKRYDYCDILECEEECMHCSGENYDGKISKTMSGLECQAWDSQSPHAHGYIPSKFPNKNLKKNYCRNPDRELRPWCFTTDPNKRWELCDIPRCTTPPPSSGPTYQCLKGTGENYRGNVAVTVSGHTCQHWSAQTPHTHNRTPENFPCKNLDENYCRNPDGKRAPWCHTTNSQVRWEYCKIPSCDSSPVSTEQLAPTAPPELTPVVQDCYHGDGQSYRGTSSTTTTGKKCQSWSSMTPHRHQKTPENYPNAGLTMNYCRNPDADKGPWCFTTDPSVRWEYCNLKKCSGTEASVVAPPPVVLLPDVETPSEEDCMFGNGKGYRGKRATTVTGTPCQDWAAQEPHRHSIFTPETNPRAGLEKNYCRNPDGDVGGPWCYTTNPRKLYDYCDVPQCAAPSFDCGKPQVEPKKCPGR
T3 sequence (P03951 388-625 limits assumed): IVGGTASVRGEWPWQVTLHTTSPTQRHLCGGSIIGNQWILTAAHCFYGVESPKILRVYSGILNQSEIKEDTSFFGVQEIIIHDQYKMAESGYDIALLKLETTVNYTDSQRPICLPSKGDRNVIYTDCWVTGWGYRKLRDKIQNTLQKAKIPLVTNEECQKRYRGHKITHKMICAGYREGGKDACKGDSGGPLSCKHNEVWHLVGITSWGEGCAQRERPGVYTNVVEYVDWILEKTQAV
T3 sequence (P03951 19-387 partner limits assumed): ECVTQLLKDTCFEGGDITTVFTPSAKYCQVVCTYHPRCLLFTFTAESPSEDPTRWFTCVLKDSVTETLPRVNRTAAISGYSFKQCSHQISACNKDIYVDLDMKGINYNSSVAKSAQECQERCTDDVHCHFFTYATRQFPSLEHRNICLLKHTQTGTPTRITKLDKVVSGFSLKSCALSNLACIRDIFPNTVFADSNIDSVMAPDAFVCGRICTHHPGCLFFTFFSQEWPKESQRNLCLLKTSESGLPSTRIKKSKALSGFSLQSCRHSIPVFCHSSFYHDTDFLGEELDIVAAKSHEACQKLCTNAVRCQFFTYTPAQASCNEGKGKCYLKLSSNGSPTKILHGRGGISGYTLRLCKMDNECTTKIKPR
T7 sequence (P03952 391-638 limits assumed): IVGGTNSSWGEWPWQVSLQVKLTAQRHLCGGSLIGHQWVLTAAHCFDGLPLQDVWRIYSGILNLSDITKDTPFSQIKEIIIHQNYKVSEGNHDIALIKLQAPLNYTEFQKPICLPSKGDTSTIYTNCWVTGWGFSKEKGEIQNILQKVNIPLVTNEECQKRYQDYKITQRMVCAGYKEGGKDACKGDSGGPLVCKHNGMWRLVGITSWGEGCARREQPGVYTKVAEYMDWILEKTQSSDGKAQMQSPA
T7 sequence (P03952 20-390 partner limits assumed): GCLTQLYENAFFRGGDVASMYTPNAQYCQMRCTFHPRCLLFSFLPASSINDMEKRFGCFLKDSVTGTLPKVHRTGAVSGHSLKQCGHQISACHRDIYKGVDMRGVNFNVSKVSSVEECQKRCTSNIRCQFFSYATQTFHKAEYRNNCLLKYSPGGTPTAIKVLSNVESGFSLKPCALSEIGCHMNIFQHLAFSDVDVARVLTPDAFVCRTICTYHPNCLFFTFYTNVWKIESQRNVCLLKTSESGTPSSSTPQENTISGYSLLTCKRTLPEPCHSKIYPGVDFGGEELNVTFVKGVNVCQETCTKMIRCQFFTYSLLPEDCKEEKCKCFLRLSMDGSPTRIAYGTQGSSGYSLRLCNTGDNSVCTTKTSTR
Chain of recombinant tissue plasminogen activator (P00750 36-562): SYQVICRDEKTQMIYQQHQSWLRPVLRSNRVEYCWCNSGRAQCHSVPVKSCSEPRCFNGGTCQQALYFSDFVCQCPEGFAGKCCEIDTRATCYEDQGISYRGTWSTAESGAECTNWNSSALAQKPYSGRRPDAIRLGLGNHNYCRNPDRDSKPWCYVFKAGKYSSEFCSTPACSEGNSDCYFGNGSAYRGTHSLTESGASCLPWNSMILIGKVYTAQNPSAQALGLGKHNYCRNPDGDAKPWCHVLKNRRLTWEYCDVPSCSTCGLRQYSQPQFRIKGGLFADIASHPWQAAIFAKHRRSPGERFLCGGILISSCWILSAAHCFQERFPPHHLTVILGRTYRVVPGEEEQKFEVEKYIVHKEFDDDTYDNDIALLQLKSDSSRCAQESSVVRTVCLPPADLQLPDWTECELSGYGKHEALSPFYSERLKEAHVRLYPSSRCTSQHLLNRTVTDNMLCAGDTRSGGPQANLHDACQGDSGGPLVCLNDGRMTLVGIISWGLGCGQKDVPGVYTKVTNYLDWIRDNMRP
T2 sequence (P00742 235-488 limits assumed): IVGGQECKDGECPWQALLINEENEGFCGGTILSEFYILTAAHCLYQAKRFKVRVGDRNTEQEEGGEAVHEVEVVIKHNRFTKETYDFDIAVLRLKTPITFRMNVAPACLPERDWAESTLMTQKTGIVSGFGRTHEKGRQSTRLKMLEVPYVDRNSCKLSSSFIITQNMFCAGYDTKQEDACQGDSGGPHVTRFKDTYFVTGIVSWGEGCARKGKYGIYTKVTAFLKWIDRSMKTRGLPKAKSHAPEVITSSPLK
T2 sequence (P00742 41-179 partner limits assumed): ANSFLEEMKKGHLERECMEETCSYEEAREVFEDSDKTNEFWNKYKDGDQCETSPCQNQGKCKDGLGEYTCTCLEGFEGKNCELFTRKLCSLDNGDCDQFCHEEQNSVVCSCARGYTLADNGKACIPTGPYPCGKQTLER

As for `CC(C)(C)OC(=O)N[C@H](CC(=O)O)C(=O)N1CCC[C@H]1C(=O)N[C@H](C=O)CCCNC(=N)N` [Compound 12, N-t-buyloxycarbonyl-D-Asp-L-Pro-L-argininal] (Boc-[dD]-Pro-Arg-aldehyde), the 50% inhibitory concentration (IC50) in assay [1] is 84 nM; in assay [2] (setting [17]), more than 25000 nM; in assay [3] it was more than 25000 nM; in [5] (setting [17]) it was more than 25000 nM; in [6] (setting [17]), 17000 nM; in assay [8] it was 1200 nM. For the same molecule, the 50% inhibitory concentration (IC50) in assay [9] and in assay [10] was more than 25000 nM each time. The “Calculated % Selectivity Trypsin” value in assay [1] (trypsin relative to itself (reference, 100 by definition)) was 100%. In addition, in assay [2] (setting [18]), the “Calculated % Selectivity Xa” value is less than 0.34%. Besides, in assay [3] (setting [18]), the “Calculated % Selectivity XIa” value is less than 0.34%. Moreover, the “IC50 Thrombin” value in assay [4] is “Inact”. The “Calculated % Selectivity Thrombin” value in [4] (setting [18]) is given as 0%. Besides, the “Calculated % Selectivity tPA” value in assay [5] (setting [18]) is on record as less than 0.3%. In assay [6] (setting [18]), the “Calculated % Selectivity UK” value is recorded as 0.5%. Further, in assay [7], the inhibitory constant (Ki) was 45 nM. Further, the “Calculated % Selectivity Plasmin” value in [8] (setting [18]) is given as 7%. For the same molecule, the “Calculated % Selectivity Protein C” value in [9] (setting [18]) is less than 0.3%. Further, in [10] (setting [18]), the “Calculated % Selectivity Kallikrein” value was less than 0.34%. In [11] (setting [17]), the “IC50 VIIA” value is listed as “Inact”. In addition, in [11] (setting [18]), the “Calculated % Selectivity VIIa” value is given as 0%.

As for `CCOC(=O)c1ccc(OC(=O)CCCCCN=C(N)N)cc1.CS(=O)(=O)O` [FOY, gabexate mesilate, reference compound], the IC50 in [1] was 250 nM; in assay [2] (setting [17]) it was 8000 nM; in assay [4], 6000 nM; in assay [5] (setting [17]), 9000 nM; in assay [8], 1600 nM; in [9], 15000 nM. The molecule further had an IC50 in assay [11] (setting [17]) of more than 25000 nM. In addition, the “efficacy in the treatment of acute pancreatitis induced in animal models” value (“efficacy in the treatment … in animal models” for short) in assay [12] is “effective to varying degrees”.

As for `CN(C)C(=O)COC(=O)Cc1ccc(OC(=O)c2ccc(NC(=N)N)cc2)cc1.CS(=O)(=O)O` [Foy-305, camostate], the “efficacy in the treatment … in animal models” value in [12] is on record as “effective to varying degrees”.

`N=C(N)c1ccc2cc(OC(=O)c3ccc(N=C(N)N)cc3)ccc2c1` [Futhan, 6-amidino-2-naphthyl-4-guanidino benzoate dimethanesulfonate, reference compound]: the IC50 was less than 25 nM in [1]; 6000 nM in assay [2] (setting [17]); less than 25 nM in [3]; 210 nM in assay [4]; 370 nM in assay [5] (setting [17]); 84 nM in assay [9]. Further, the IC50 was less than 25 nM in assay [10] and 1200 nM in [11] (setting [17]). Moreover, the “efficacy in the treatment … in animal models” value in assay [12] was “effective”.

Regarding `CC(C)C[C@H](NC(=O)[C@@H]1CCC(=O)N1C(=O)OCc1ccccc1)C(=O)N[C@H](C=O)CCCNC(=N)N` [N-benzyloxycarbonyl-L-pyroglutamyl-L-leucyl-L-argininal], in assay [13], the “IC50 against trypsin, times lower than that for N-acetyl-L-leucyl-L-leucy-L-argininal” value was “about 7 times”.

Consider Aprotinin [reference compound], for which the “IC50 Xa” value in assay [2] (setting [17]) is “Inact”. Besides, the “IC50 Thrombin” value in [4] is reported as “Inact”. In addition, the “IC50 tPA” value in [5] (setting [17]) is “Inact”. Besides, the dissociation constant (Kd) was 100 nM in assay [14] and 0.03 nM in [16]. Besides, the “efficacy in the treatment of human acute pancreatitis” value in [15] is reported as “ineffective”. Moreover, the figures for the IC50 in assay [9] and in assay [11] (setting [17]) were 2000 nM and more than 25000 nM, respectively.

As a reminder, the IC50 is the concentration needed to halve the response being measured. Usually Ki stands for the equilibrium dissociation constant of an inhibitor or competing ligand from its target. Usually Kd stands for the constant that tells how readily two partners part at equilibrium.

(Values after patent publication US5534498A, “Trypsin inhibitors” (Corvas International, Inc., priority 1993, dated 1996).)
